In US8252832B2, “Kinesin inhibitors as cancer therapeutics” (Novartis AG, priority 2007, dated 2012):

How the values were obtained:
[1] = HCT116 tumor xenograft model, host response (body weight, survival, neutrophils); format: in vivo, mouse; conditions: q4d × 3; for Neutrophils/ul 72 h post-dose +/− S.D.: 72 h after last dose
Protocol: The cell line HCT-116 has been widely used in the evaluation of mitotic inhibitors such as microtubule disruptors, mitotic kinase inhibitors and KSP inhibitors. A multi-dose efficacy study on a […] (q4d×3) dosing schedule was performed. Experiments were performed using outbred athymic nu/nu mice approximately 6-8 weeks old (Charles River Laboratories, Hollister, Calif.). […] Mice were housed 4-5 animals per cage in clear polycarbonate micro-isolator cages with a 12-hour light, 12-hour dark cycle at temperatures between 70-80 degrees Fahrenheit and 30-70% relative humidity. Food (Purina rodent chow pellets) and water were provided ad libitum. Mice were handled in accordance with Novartis ACUC regulations and guidelines and the ILAR Guide for the Care and Use of Laboratory Animals. Experiments were performed in an AAALAC accredited facility under an ACUC approved protocol.
Compound IIa (free base) and SB-715992 (ispinesib, a KSP inhibitor by Cytokinetics that is in clinical trials; as its free base) were formulated in 20% Captisol® for all the above doses for a dose volume of 8 mL/kg. Doses were adjusted to each animal's body weight.
Female nu/nu mice (Charles River, Hollister, Calif.) were injected subcutaneously in the right flank with 5 million HCT-116 tumor cells suspended in Hank's Balanced Salt Solution (HBSS) in a total volume of 0.1 mL/mouse. For the efficacy studies, mice were randomized 10 days post-implant. […] Tumor volume was calculated as (L×W2)/2. […] Percent treatment/control (T/C) values were calculated using the following formula: % T/C=100×ΔT/ΔC
Since a dose as low as 1.25 mg/kg on a q4d×3 schedule induced regression of HCT116 xenografts, the efficacy study was repeated with a range of doses from 2 to 0.125 mg/kg to observe a dose response and determine how low a dose can be given to induce tumor regression. […] Only the 7.5 mg/kg dose of SB-715992 induced tumors to regress. Additionally, 72 hrs after the last dose, blood was collected to compare the circulating neutrophil levels among groups. Neutrophils were reduced in a dose responsive manner, similar to the tumor efficacy effect.

[2] = HCT15 tumor xenograft model, host response; format: in vivo, mouse
Protocol: Routine animal care and assurance of welfare were as described above.
Treatments for the efficacy studies were initiated 10 days following tumor cell implantation when tumors were approximately 300 mm^3. Compound IIa and SB-715992 were administered intravenously (i.v.) via the tail vein in a volume of 8 mL/kg at the doses indicated. Paclitaxel was administered intraperitoneally (i.p.) in a volume of 16 mL/kg at 30 mg/kg.
Tumor volume was calculated as (L×W2)/2. […] Data was analyzed as described above.

[3] = Subcutaneous MV4; 11 tumor xenograft model, host response; format: in vivo, mouse
Protocol: Subcutaneous tumor efficacy studies were performed using outbred athymic nu/nu mice approximately 6-8 weeks old (Charles River Laboratories, Hollister, Calif.). The efficacy study in the disseminated disease model was performed using immunodeficient NOD-SCID female mice approximately 7-8 weeks old (Jackson Laboratories, Bar Harbor, Me.). […] Routine animal care and assurance of welfare were as described above.
The compound IIa (free base) and SB-715992 (free base) were formulated in 20% Captisol for a dose volume of 8 mL/kg. Doses were adjusted to each animal's body weight.
For the two efficacy evaluations in the subcutaneous tumor model, 10 million cells combined in a 1:1 mixture of HBSS and Matrigel™ were injected subcutaneously in the right flank in a total volume of 0.2 mL/mouse. […] Tumor volume was calculated as (L×W2)/2.

KB8.5 tumor xenograft = KB8.5 tumor xenograft model (P-gp expressing), tumor response; format: in vivo, mouse; conditions: q4d × 3
Protocol: Cells were cultured for fewer than 10 passages prior to use. […] All data were expressed as mean and SEM. Between-groups comparisons for final tumor measurements were performed using the one-way ANOVA pair-wise analysis. Significance was determined using Kruskal-Wallis one-way ANOVA on Ranks, followed by appropriate post-hoc test (Dunn's Method or Tukey Test) for multiple pair-wise comparisons. Statistical analysis was carried out using SigmaStat (Systat Software Inc., San Jose, Calif.).

tumor cell lines = test: Inhibition of cellular proliferation, CellTiter-Glo, 72 hours, all cell lines tested; format: cell-based; conditions: 72 hours of continuous compound exposure
Excerpt: Cell lines used were as follows: HCT-116 (National Cancer Institute's DCTF Tumor Repository, catalog #NCI-502568, Rockville, Md.), HCT-15 (National Cancer Institute's DCTF Tumor Repository, catalog#NCI-502711, Rockville, Md. available from American Type Tissue Collection, catalog #CLL-225), KB-3-1 (available from DSMZ, Deutsche Sammlung von Mikroorganismen und Zellkulturen GmbH (German Collection of Microorganisms and Cell Cultures—catalog number ACC 158), KB-V1 (available from DSMZ—catalog number ACC 149), AGS (available from American Type Culture Collection, Manassas Va., catalog number CRL-1739™), N87 (available from American Type Culture Collection, Manassas Va., catalog number CRL-5822), Hel92.1.7 (available from American Type Culture Collection, Manassas Va., catalog number TIB 180), K562 (available from American Type Culture Collection, Manassas Va., catalog number CRL-243™), MV4; 11 (American Tissue Culture Collection, Manassas Va., catalog number CRL-9591) and U937 (available from American Type Culture Collection, Manassas Va., catalog number CRL-1593.2).
Cells were plated in 96-well plates at densities of about 500 cells per well of a 96-well plate and allowed to grow for 24 hours. […] The amount of luminescence was determined for each well using a Wallac Trilux plate reader, which correlates with the number of cells per well. […]

[4] = Study 2, 1.8 mg/kg, Q4d × 3, i.v, D10
[5] = Study 2, 3.5 mg/kg, Q4d × 3, i.v, D3
[6] = Study 2, 7.5 mg/kg, Q4d × 3, i.v, D10

CC(=O)O[C@H]1C(=O)[C@@]2(C)[C@H]([C@H](OC(=O)c3ccccc3)[C@]3(O)C[C@H](OC(=O)[C@H](O)[C@@H](NC(=O)c4ccccc4)c4ccccc4)C(C)=C1C3(C)C)[C@]1(OC(C)=O)CO[C@@H]1C[C@@H]2O [Paclitaxel, reference compound]
Survival (alive/total) ([1]; 30 mg/kg, i.p.): 9/9 | Survival (alive/total) ([2]; 30 mg/kg, Q4d × 3, i.p.): 9/9 | Survival (alive/total) ([3]; 1 mg/kg, q4d × 3, i.p.): 9/9 | ΔT/ΔC, Day 11 (%) (KB8.5 tumor xenograft; 30 mg/kg, i.p.): 78% | ΔT/ΔC, Day 11 (%) (KB8.5 tumor xenograft; Table 14 study, 30 mg/kg, i.p.): 87% | ΔT/ΔC, Day 11 (%) (KB8.5 tumor xenograft; Table 15 study, 30 mg/kg, i.p., not statistically different from vehicle): 60%

Cc1ccc(C(=O)N(CCCN)[C@@H](c2nc3cc(Cl)ccc3c(=O)n2Cc2ccccc2)C(C)C)cc1 [SB-715992, Ispinesib, reference compound]
Survival (alive/total) ([1]; 1.75 mg/kg, i.v.): 9/9 | Neutrophils/ul 72 h post-dose +/− S.D. ([1]; 1.75 mg/kg, i.v.): 1026 ± 229 µL⁻¹ | Max. Δ body weight (Day) ([1]; 1.75 mg/kg, i.v., D3): -0.6 ± 0.58 g | Max. Δ body weight (Day) (%) ([1]; 1.75 mg/kg, i.v., D3): −2.3 ± 0.51% | Survival (alive/total) ([1]; 3.5 mg/kg, i.v.): 9/9 | Neutrophils/ul 72 h post-dose +/− S.D. ([1]; 3.5 mg/kg, i.v.): 731 ± 391 µL⁻¹ | Max. Δ body weight (Day) ([1]; 3.5 mg/kg, i.v., D3): -0.5 ± 0.37 g | Max. Δ body weight (Day) (%) ([1]; 3.5 mg/kg, i.v., D3): −2.0 ± 0.44% | Max. Δ body weight (Day) ([1]; 3.5 mg/kg, i.v., D4): -0.7 ± 0.05 g | Max. Δ body weight (Day) (%) ([1]; 3.5 mg/kg, i.v., D4): −2.7 ± 0.17% | Survival (alive/total) ([1]; 7.5 mg/kg, i.v.): 9/9 | Neutrophils/ul 72 h post-dose +/− S.D. ([1]; 7.5 mg/kg, i.v.): 476 ± 112 µL⁻¹ | Max. Δ body weight (Day) ([1]; 7.5 mg/kg, i.v., D4): -0.3 ± 0.05 g | Max. Δ body weight (Day) (%) ([1]; 7.5 mg/kg, i.v., D4): −1.3 ± 0.25% | Max. Δ body weight (Day) ([1]; 7.5 mg/kg, i.v., D10): -0.7 ± 1.1 g | Max. Δ body weight (Day) (%) ([1]; 7.5 mg/kg, i.v., D10): −3.0 ± 2.49% | Survival (alive/total) ([1]; 15 mg/kg, i.v.): 9/9 | Max. Δ body weight (Day) ([1]; 15 mg/kg, i.v., D7): -2.5 ± 0.2 g | Max. Δ body weight (Day) (%) ([1]; 15 mg/kg, i.v., D7): −10.6 ± 0.75% | Survival (alive/total) ([2]; 7.5 mg/kg, q4d × 3, i.v): 9/9 | Max. Δ body weight (Day) ([2]; 7.5 mg/kg, q4d × 3, i.v, D8): 0.6 ± 0.2 g | Max. Δ body weight (Day) (%) ([2]; 7.5 mg/kg, q4d × 3, i.v, D8): 2.6 ± 1.0% | Survival (alive/total) ([2]; 15 mg/kg, q4d × 3, i.v.): 9/9 | Max. Δ body weight (Day) ([2]; 15 mg/kg, q4d × 3, i.v, D10): -1.2 ± 0.4 g | Survival (alive/total) ([3]; 15 mg/kg, q4d × 3, i.v., (body weight loss)): 7/9 (body | % Max. Δ body weight, (Day) ([3]; 15 mg/kg, q4d × 3, i.v., D3): −5.6 ± 1.1% | Max Δ body weight (g) (Day) ([3]; 15 mg/kg, q4d × 3, i.v., D3): -1.4 ± 0.3 g | Survival (alive/total) ([3]; Study 2, 1.8 mg/kg, Q4d × 3, i.v): 9/9 | % Max. Δ body weight, (Day) [3, 4]: 2.0 ± 1.0, % | Max. Δ body weight (g) (Day) [3, 4]: 0.5 ± 0.4, g | Survival (alive/total) ([3]; Study 2, 3.5 mg/kg, Q4d × 3, i.v): 9/9 | % Max. Δ body weight, (Day) [3, 5]: 0.7 ± 0.3, % | Max. Δ body weight (g) (Day) [3, 5]: 0.2 ± 0.3, g | Survival (alive/total) ([3]; Study 2, 7.5 mg/kg, Q4d × 3, i.v): 9/9 | % Max. Δ body weight, (Day) [3, 6]: −1.4 ± 1.3, % | Max. Δ body weight (g) (Day) [3, 6]: −0.4 ± 0.8, g | ΔT/ΔC, Day 11 (%) (KB8.5 tumor xenograft; 15 mg/kg, i.v.): 56% | ΔT/ΔC, Day 11 (%) (KB8.5 tumor xenograft; Table 14 study, 15 mg/kg, i.v.): 77% | ΔT/ΔC, Day 11 (%) (KB8.5 tumor xenograft; Table 15 study, 15 mg/kg, i.v., not statistically different from vehicle): 60%

CC(C)(C)[C@H](c1nc(-c2cc(F)ccc2F)cn1Cc1ccccc1)N(CC[C@H](N)CF)C(=O)CO [Compound IIa]
GI50 (tumor cell lines): 0.1 to 6.5 nM | Survival (alive/total) ([1]; 0.125 mg/kg, i.v.): 9/9 | Survival (alive/total) ([1]; 0.25 mg/kg, i.v.): 9/9 | Survival (alive/total) ([1]; 0.5 mg/kg, i.v.): 9/9 | Survival (alive/total) ([1]; 1 mg/kg, i.v.): 9/9 | Survival (alive/total) ([1]; 1.25 mg/kg, i.v.): 9/9 | Survival (alive/total) ([1]; 2 mg/kg, i.v., (body weight loss)): 8/9 (body | Survival (alive/total) ([1]; 2.5 mg/kg, i.v.): 9/9 | Survival (alive/total) ([1]; 5 mg/kg, i.v., (body weight loss)): 8/9 (body | Survival (alive/total) ([2]; 1.25 mg/kg, q4d × 3, i.v): 9/9 | Survival (alive/total) ([2]; 2.5 mg/kg, q4d × 3, i.v): 9/9 | Survival (alive/total) ([2]; 4.0 mg/kg, q4d × 3, i.v): 9/9 | Survival (alive/total) ([3]; 0.625 mg/kg, q4d × 3, i.v.): 4/4 | Survival (alive/total) ([3]; 4 mg/kg, q4d × 3, i.v.): 9/9 | Survival (alive/total) ([3]; Study 2, 0.13 mg/kg, q4d × 3, i.v): 9/9 | Survival (alive/total) ([3]; Study 2, 0.25 mg/kg, q4d × 3, i.v): 9/9 | Survival (alive/total) ([3]; Study 2, 0.5 mg/kg, q4d × 3, i.v): 9/9 | Survival (alive/total) ([3]; Study 2, 1 mg/kg, q4d × 3, i.v): 9/9 | Survival (alive/total) ([3]; Study 2, 2 mg/kg, q4d × 3, i.v): 9/9 | ΔT/ΔC, Day 11 (%) (KB8.5 tumor xenograft; 5 mg/kg, i.v.): 19%
